Experiment [1] concerns pollen of cv. Chandler. The experiment in a line: In vitro pollen germination and pollen tube growth. It counts as cell-based, walnut. To be noted: 20° C. As to the method:
An in vitro experiment was done to study the effects of the same treatments as Study 1 on pollen of cv. Chandler. The growing media used for pollen germination and tube growth was prepared in Petri dishes, and consisted of a solution of 10% sucrose and 1% agar in 50 mg per liter boric acid, plus either 0.4 ppm HBR, 4.0 ppm HBR, 20 ppm HBR, or 4.0 ppm HBR+10 pm CPPU. The control solution was distilled water. The experimental design was randomized with 4 replications, using Petri dishes as experimental units. Chandler pollen was sown onto the media with a fine brush, and incubated in a growth chamber for 24 hours at 20° C. Observations of pollen germination were done after 12 hours and pollen tube growth after 24 hours respectively. An Olympus CX31 microscope at 40× was used, and photographs were taken with a ProgRes® C3 camera, using the Capture-Pro computational program. The percentage of germination was determined using the GSA Image Analyzer 3.6.5 program, and the pollen tube length with the Qcad program. FIG. 11 is a representative 20× photomicrograph of germinating Chandler pollen.

In experiment [2] the test system is walnut cv. Serr. The experiment in a line: Foliar spray field trial in a walnut orchard, cv. Serr: fruit set and nut weights. The format is in vivo. To be noted: all treatments of HBR except HBR 0.4 ppm. As for the experimental part: (§1) Testing was conducted in two contiguous walnut orchards located in Pirque, Metropolitan Region of Chile. The first orchard is of cultivar Serr, planted at 11×11 m and 20 years old. The second orchard is of cultivar Chandler, planted at 7×6 m and 5 years old. In the 2014/2015 season yield of cultivar Serr was 4,300 kilograms of walnuts in shells per hectare, and in cultivar Chandler the yield was 2,300 kilograms of walnuts in shells per hectare.
During the 2014/2015 season, four experimental and one control treatments were applied to the Pirque orchard. Treatments were foliar sprays with solutions of Homobrassinolide (HBR) at 0.4, 4.0 and 20 ppm, and HBR 4.0 ppm+CPPU 10 ppm. Control was water. Treatment of each cultivar took place 10 days after said cultivar reached approximately 10% pistillate flower receptive. Each tree was sprayed with approximately 250 ml of solution. At that volume the sprayed leaves and branches are wetted and excess solution is dripping off the tree. Applications were made to small branches having 2 to 4 terminal buds with pistillate flowers, equivalent to 3 to 12 potential fruits per replication. The experimental design was randomized blocks with 10 replications. […]
The measurement of fruit set was determined by the difference between the number of fruit harvested and the number of flowers/fruitlets sprayed in late flowering. […]

In experiment [3] the test system is walnut cv. Chandler. The experiment in a line: Foliar spray field trial in a walnut orchard, cv. Chandler: fruit set and nut weights. It counts as in vivo. As for the experimental part: as §1
During the 2014/2015 season, four experimental and one control treatments were applied to the Pirque orchard. Treatments were foliar sprays with solutions of Homobrassinolide (HBR) at 0.4, 4.0 and 20 ppm, and HBR 4.0 ppm+CPPU 10 ppm. Control was water. Treatment of each cultivar took place 10 days after said cultivar reached approximately 10% pistillate flower receptive. Each tree was sprayed with approximately 250 ml of solution. At that volume the sprayed leaves and branches are wetted and excess solution is dripping off the tree. Applications were made to small branches having 2 to 4 terminal buds with pistillate flowers, equivalent to 3 to 12 potential fruits per replication. The experimental design was randomized blocks with 10 replications. Ten trees per cultivar received treatment and all treatments were applied to separate spray targets of each tree. The spray targets included pistillate flowers, catkins and leaves.
Walnut flowering of both cultivars in the season was prolonged and irregular, extending for 2 weeks in each cultivar. Bloom was mainly protandrous with catkins fall of 20-30% during the pistillate flowering period for both cultivars. The vegetative growth was normal. When flowering of cv. Serr reached 10 to 20% of receptivity, Aminoethoxy vinyl-glycine was applied at a concentration of 125 ppm to all conditions to delay ripening.
The measurement of fruit set was determined by the difference between the number of fruit harvested and the number of flowers/fruitlets sprayed in late flowering. After harvest, the nuts from the experiment were dried in laboratory at a temperature of 35° C. for 12 hours, and then the nut shell was removed, measuring the weight of both (in shell and shelled) independently.

Consider `CC[C@@H](C(C)C)C(O)C(O)[C@@H](C)[C@H]1CC[C@H]2[C@@H]3COC(=O)[C@H]4C[C@H](O)[C@H](O)C[C@]4(C)[C@H]3CC[C@]12C` (stereo in doubt) [HBR, homobrassinolide], for which the “pollen germination versus control” value was “less than control” in experiment [1] (0.4 ppm HBR in medium, observed after 12 hours) and “similar” in experiment [1] (4.0 ppm HBR in medium, observed after 12 hours). Moreover, the “pollen tube growth versus control” value in experiment [1] (4.0 ppm HBR in medium, observed after 24 hours) is given as “greater than control”. The pollen germination entry in experiment [1] (20 ppm HBR in medium, observed after 12 hours) is listed as “no germination”. Also, the “final weight of shelled walnuts versus control” value in experiment [2] is “greater than control”. Further, the “fruit set, increase with respect to the control” value in experiment [3] (HBR 0.4 ppm) is on record as 6.2%; in experiment [3] (HBR 4.0 ppm) it was 5.0%; in experiment [3] (HBR 20 ppm), 13.5%. The “final weight of walnuts in shell, increase over control” value is recorded as 16.9% in experiment [3] (HBR 4.0 ppm) and 29.6% in experiment [3] (HBR 20 ppm).

These data come from patent US20190075796A1, “Increased walnut yields with brassinosteroid application” (priority 2017, published 2019).
